A short description of one data set: in vivo. The settings on record: rat, iv, 0.5 mg/kg.
A short description of data set [1]: Oral bioavailability in rat at 1 mg/kg. Type of data set: ADME, organism-based. The settings on record: in vivo.
Data set [2] in a line: Half life in rat at 0.5 mg/kg, iv or 1 mg/kg, po. As to conditions: in vivo. The class given is ADME, organism-based.
Data set [3] can be described thus: Oral bioavailability in rat at 3 mg/kg. The class given is ADME, organism-based. As to conditions: in vivo.
Data set [4] in a line: Total clearance in rat at 1 mg/kg, iv. Type of data set: ADME, organism-based. As to conditions: in vivo.
The nature of data set [5]: Half life in rat at 1 mg/kg, iv. Type of data set: ADME, organism-based. The settings on record: in vivo.
A short description of data set [6]: Cmax in rat at 3 mg/kg, po. The settings on record: in vivo. Set-up: dose 3 mg/kg, route oral. Type of data set: ADME, organism-based.
A short description of data set [7]: AUC in rat at 3 mg/kg, po. As to conditions: in vivo. The class given is ADME, organism-based.

For `COc1ccc(C(=O)C2=C(O)C(=O)N(c3ccc(-c4ccon4)cc3)C2C2CCCCC2)cn1` (stereo not given), in “in vivo”, the clearance came out at 4.6 mL/min/kg. Besides, the bioavailability in data set [1] is 28.1%. Also, in data set [2], the half-life is 84 min.
With `CC(C)(C)C(=O)C1=C(O)C(=O)N(c2ccc(-c3ccsc3)cc2)C1c1ccccc1OCCO` (stereo not given), the bioavailability in data set [1] is 39.5%. This molecule also had a half-life in data set [2] of 198 min.
The molecule `COc1ccc(C(=O)C2=C(O)C(=O)N(c3ccc(-c4ccon4)cc3)C2c2ccccc2OCCO)cc1` (stereo not given) came in with a bioavailability in data set [1] of 9%. The same molecule gave a half-life in data set [2] of 30 min.
`CCC(CC)C1C(C(=O)c2ccc(OC)cc2)=C(O)C(=O)N1c1ccc(-c2ccon2)cc1` (stereo not given): the clearance in “in vivo” was 5.1 mL/min/kg. Also, in data set [1], the bioavailability was found to be 18.9%. The same molecule showed a half-life in data set [2] of 252 min.
Consider `CC(C)C(=O)C1=C(O)C(=O)N(c2ccc(-c3ccsc3)cc2)C1c1ccccc1OCCO` (stereo not given), for which the bioavailability in data set [1] worked out at 40.8%. The half-life in data set [2] was 60 min.
For the molecule `COc1ccc(C(=O)C2=C(O)C(=O)N(c3ccc(-c4ccon4)cc3)C2c2ccccc2OC)cc1` (stereo not given), in “in vivo”, the clearance amounted to 8.8 mL/min/kg. Further, the bioavailability in data set [1] was 19.9%. In addition, in data set [2], the half-life was 30 min.
`O=C(C1=C(O)C(=O)N(c2ccc(-c3ccon3)cc2)C1C1CCCCC1)c1ccc(CO)cc1` (stereo not given) showed a clearance in the data set “in vivo” of 3.8 mL/min/kg. In data set [1], the bioavailability came out at 6.7%. This molecule also gave a half-life in data set [2] of 84 min.
Molecule `COc1ccccc1C1C(C(=O)C(C)C)=C(O)C(=O)N1c1ccc(-c2ccsc2)cc1` (stereo not given) returned a clearance in “in vivo” of 0.3 mL/min/kg. This molecule also gave a bioavailability in data set [1] of 20%. The half-life in data set [2] is 366 min.
Taken in the same sequence, the figures for `CN(C)CCOc1ccccc1C1C(C(=O)C(C)(C)C)=C(O)C(=O)N1c1ccc(-c2ccsc2)cc1` (stereo not given) were 7.3 mL/min/kg, 15.5% and 90 min.
As to `CC(C)(C)C(=O)C1=C(O)C(=O)N(c2ccc(-c3ccsc3)cc2)C1c1ccccc1OCC(=O)O` (stereo not given), the bioavailability in data set [1] is 5.2%. For the same molecule, the half-life in data set [2] was 252 min.
Molecule `COc1ccccc1[C@@H]1C(C(=O)C(C)C)=C([O-])C(=O)N1c1ccc(-c2ccsc2)cc1.[Na+]` gave a bioavailability in data set [3] of 37.4%. In data set [4], the clearance was 0.39 mL/min/kg. In data set [5], this molecule gave a half-life of 192 min. Moreover, in data set [6], the Cmax worked out at 4230 ng/mL. The molecule further yielded an AUC in data set [7] of 48400 ng·h/mL.
Molecule `CC(C)(C)C(=O)C1=C(O)C(=O)N(c2ccc(-c3cccs3)cc2)C1c1ccccc1OCCO` (stereo not given) displayed a clearance in the data set “in vivo” of 1.3 mL/min/kg. In data set [1], this molecule had a bioavailability of 65.2%. This molecule had a half-life in data set [2] of 120 min.
For the molecule `CC(C)C(=O)C1=C(O)C(=O)N(c2ccc(-c3ccsc3)cc2)C1c1ccccc1OCC[S+](C)[O-]` (stereo not given), in “in vivo”, the clearance turned out to be 23.2 mL/min/kg. Further, the bioavailability in data set [1] came out at 0.7%. In data set [2], the half-life was 66 min.
`C[S+]([O-])CCOc1ccccc1C1C(C(=O)C(C)(C)C)=C(O)C(=O)N1c1ccc(-c2ccsc2)cc1` (stereo not given): the clearance in the data set “in vivo” is 13.7 mL/min/kg. The molecule also showed a bioavailability in data set [1] of 23.2%. The half-life in data set [2] is 84 min.
Regarding `O=C(O)c1ccc(C(=O)C2=C(O)C(=O)N(c3ccc(-c4ccon4)cc3)C2C2CCCCC2)cc1` (stereo not given), in data set [1], the bioavailability turned out to be 3.7%. This molecule had a half-life in data set [2] of 114 min.
`COc1ccccc1C1C(C(=O)C(C)(C)C)=C(O)C(=O)N1c1ccc(-c2ccon2)cc1` (stereo not given) registered a clearance in the data set “in vivo” of 1.3 mL/min/kg. Besides, the bioavailability in data set [1] is 77.9%. The molecule also showed a half-life in data set [2] of 156 min.
In data set [1], `CNC(=O)c1ccc(C(=O)C2=C(O)C(=O)N(c3ccc(-c4ccon4)cc3)C2C2CCCCC2)cc1` (stereo not given) came in with a bioavailability of 1.6%. This molecule also gave a half-life in data set [2] of 42 min.
For `CC(C)(C)C(=O)C1=C(O)C(=O)N(c2ccc(-c3ccon3)cc2)C1c1ccccc1OCCO` (stereo not given), the clearance in “in vivo” amounted to 2.9 mL/min/kg. In data set [1], this molecule came in with a bioavailability of 49.9%. This molecule showed a half-life in data set [2] of 126 min.

The values are drawn from ChEMBL document CHEMBL4422675, “Pyrrolinone derivatives as a new class of P2X3 receptor antagonists Part 2: Discovery of orally bioavailable compounds” (Bioorg Med Chem Lett, 2019).
